Measured values published in patent US20230085307A1, “PYRIDAZINONE COMPOUND AND HERBICIDE” (NISSAN CHEMICAL CORPORATION, priority 2019, published 2023).

What was measured:
Japanese bulrush = test: Test Example 1: herbicidal activity, application before weed generation under submerged conditions (Table 16, symbol B); type: in vivo, Japanese bulrush (Schoenoplectus juncoides); conditions: amount of applied herbicide 320 g/ha
Method in brief: (§1)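 Submerged Wagner pots (alluvial soil, 4 cm water) sown with weed seeds and planted with 2.5-leaf rice seedlings; emulsifiable concentrate diluted in water applied to water surface on sowing day. Held in greenhouse at 25-30 °C; injury scored 0-5 by herbicidal rate after three weeks.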

oval-leafed pondweed [1] = test: Test Example 1: herbicidal activity, application before weed generation under submerged conditions (Table 16, symbol C); type: in vivo, oval-leafed pondweed (Monochoria vaginalis); conditions: amount of applied herbicide 320 g/ha
Method in brief: as §1

late watergrass = test: Test Example 2: herbicidal activity, application during weed generation under submerged conditions (Table 17, symbol A); type: in vivo, late watergrass (Echinochloa oryzicola); conditions: AAH 320 g/ha; application during weed generation, submerged conditions
Method in brief: (§2)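 In this pot test, flooded alluvial soil (water depth 4 cm) holds all three species sown as a mixture. Once seedlings have one to two leaves, the compound's emulsion, thinned with water to the intended dose, is poured on the water; grading follows after three weeks on the earlier criteria.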

oval-leafed pondweed [2] = test: Test Example 2: herbicidal activity, application during weed generation under submerged conditions (Table 17, symbol C); type: in vivo, oval-leafed pondweed (Monochoria vaginalis); conditions: AAH 320 g/ha; application during weed generation, submerged conditions
Method in brief: as §2

barnyard grass [3] = test: Test Example 3: herbicidal effect by foliage application, Wagner pot (Table 18, symbol H); type: in vivo, barnyard grass (Echinochloa crus-galli); conditions: 320 g/ha
Method in brief: (§3)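 Plants were sown in alluvial soil held under 0.1–0.5 cm standing water and grown 14 days in a greenhouse at 25–30 °C. An emulsifiable formulation, water-diluted to the set dose, was then sprayed onto the foliage, and effects were scored three weeks later using previously defined criteria.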

rice flat sedge = test: Test Example 3: herbicidal effect by foliage application, Wagner pot (Table 18, symbol E); type: in vivo, rice flat sedge (Cyperus iria); conditions: 320 g/ha
Method in brief: as §3

southern crabgrass [4] = test: Test Example 4: herbicidal effect by soil treatment (Table 19, symbol F); type: in vivo, southern crabgrass (Digitaria ciliaris); conditions: amount of applied herbicide 320 g/ha
Method in brief: (§4)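 Applied as a water-diluted emulsion, the compound was sprayed onto soil covering newly sown seeds. Evaluation came three weeks after application, in a greenhouse held at 25° C. to 30° C.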

blackgrass [5] = test: Test Example 4: herbicidal effect by soil treatment (Table 19, symbol J); type: in vivo, blackgrass (Alopecurus myosuroides); conditions: amount of applied herbicide 320 g/ha
Method in brief: as §4

velvetleaf = test: Test Example 4: herbicidal effect by soil treatment (Table 19, symbol M); type: in vivo, velvetleaf (Abutilon theophrasti); conditions: amount of applied herbicide 320 g/ha
Method in brief: as §4

redroot pigweed = test: Test Example 4: herbicidal effect by soil treatment (Table 19, symbol N); type: in vivo, redroot pigweed (Amaranthus retroflexus); conditions: amount of applied herbicide 320 g/ha
Method in brief: as §4

persian speedwell = test: Test Example 4: herbicidal effect by soil treatment (Table 19, symbol R); type: in vivo, Persian speedwell (Veronica persica); conditions: amount of applied herbicide 320 g/ha
Method in brief: as §4

southern crabgrass [6] = test: Test Example 5: herbicidal effect by foliage application, plastic box (Table 20, symbol F); type: in vivo, southern crabgrass (Digitaria ciliaris); conditions: foliage application, 320 g/ha, three weeks after application
Method in brief: (§5)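 Sow seeds spot-wise in sterilized diluvial soil; cover with ~1.5 cm soil. Grow 14 days in greenhouse, 25° C. to 30° C. Spray foliage with emulsion diluted to predetermined amount. Rate effect after 3 weeks.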

barnyard grass [7] = test: Test Example 5: herbicidal effect by foliage application, plastic box (Table 20, symbol H); type: in vivo, barnyard grass (Echinochloa crus-galli); conditions: foliage application, 320 g/ha, three weeks after application
Method in brief: as §5

blackgrass [8] = test: Test Example 5: herbicidal effect by foliage application, plastic box (Table 20, symbol J); type: in vivo, blackgrass (Alopecurus myosuroides); conditions: foliage application, 320 g/ha, three weeks after application
Method in brief: as §5

Italian ryegrass = test: Test Example 5: herbicidal effect by foliage application, plastic box (Table 20, symbol K); type: in vivo, Italian ryegrass (Lolium multiflorum); conditions: foliage application, 320 g/ha, three weeks after application
Method in brief: as §5

chickweed = test: Test Example 5: herbicidal effect by foliage application, plastic box (Table 20, symbol P); type: in vivo, common chickweed (Stellaria media); conditions: foliage application, 320 g/ha, three weeks after application
Method in brief: as §5

Structure (SMILES)	Herbicidal effect, B: Japanese bulrush (Japanese bulrush)	Herbicidal effect, C: oval-leafed pondweed (oval-leafed pondweed [1])	herbicidal effect rating, A: late watergrass (late watergrass)	herbicidal effect rating, C: oval-leafed pondweed (oval-leafed pondweed [2])	herbicidal effect on barnyard grass (H) (barnyard grass [3])	herbicidal effect on rice flat sedge (E) (rice flat sedge)	F: southern crabgrass, herbicidal effect grade (southern crabgrass [4])	J: blackgrass, herbicidal effect grade (blackgrass [5])	M: velvetleaf, herbicidal effect grade (velvetleaf)	N: redroot pigweed, herbicidal effect grade (redroot pigweed)	R: persian speedwell, herbicidal effect grade (persian speedwell)	F: southern crabgrass, herbicidal effect grade (southern crabgrass [6])	H: barnyard grass, herbicidal effect grade (barnyard grass [7])	J: blackgrass, herbicidal effect grade (blackgrass [8])	K: Italian ryegrass, herbicidal effect grade (Italian ryegrass)	P: chickweed, herbicidal effect grade (chickweed)	also measured
COc1ccccc1-c1sc2cc(OC(F)F)ccc2c1-c1c(O)c(C)nn(C)c1=O [3-113]	3 (Herbicidal rate of 40% or more and less than 70%)	2 (Herbicidal rate of 20% or more and less than 40%)	0 (Herbicidal rate of 5% or less (almost no effect))	0 (Herbicidal rate of 5% or less (almost no effect))	5 (Herbicidal rate of 90% or more (almost completely withered))	5 (Herbicidal rate of 90% or more (almost completely withered))	4 (Herbicidal rate of 70% or more and less than 90%)	4 (Herbicidal rate of 70% or more and less than 90%)	4 (Herbicidal rate of 70% or more and less than 90%)	5 (Herbicidal rate of 90% or more (almost completely withered))	5 (Herbicidal rate of 90% or more (almost completely withered))	1 (Herbicidal rate of 5% or more and less than 20%)	5 (Herbicidal rate of 90% or more (almost completely withered))	5 (Herbicidal rate of 90% or more (almost completely withered))	5 (Herbicidal rate of 90% or more (almost completely withered))	5 (Herbicidal rate of 90% or more (almost completely withered))	–
COc1ccccc1-c1sc2cc(OCc3ccccc3)ccc2c1-c1c(O)c(C)nn(C)c1=O [3-118]	3 (Herbicidal rate of 40% or more and less than 70%)	5 (Herbicidal rate of 90% or more (almost completely withered))	1 (Herbicidal rate of 5% or more and less than 20%)	0 (Herbicidal rate of 5% or less (almost no effect))	4 (Herbicidal rate of 70% or more and less than 90%)	5 (Herbicidal rate of 90% or more (almost completely withered))	0 (Herbicidal rate of 5% or less (almost no effect))	0 (Herbicidal rate of 5% or less (almost no effect))	0 (Herbicidal rate of 5% or less (almost no effect))	3 (Herbicidal rate of 40% or more and less than 70%)	5 (Herbicidal rate of 90% or more (almost completely withered))	4 (Herbicidal rate of 70% or more and less than 90%)	0 (Herbicidal rate of 5% or less (almost no effect))	4 (Herbicidal rate of 70% or more and less than 90%)	5 (Herbicidal rate of 90% or more (almost completely withered))	3 (Herbicidal rate of 40% or more and less than 70%)	–
COCCOc1ccc2c(-c3c(O)c(C)nn(C)c3=O)c(-c3ccccc3OC)sc2c1 [3-121]	5 (Herbicidal rate of 90% or more (almost completely withered))	5 (Herbicidal rate of 90% or more (almost completely withered))	3 (Herbicidal rate of 40% or more and less than 70%)	3 (Herbicidal rate of 40% or more and less than 70%)	5 (Herbicidal rate of 90% or more (almost completely withered))	5 (Herbicidal rate of 90% or more (almost completely withered))	5 (Herbicidal rate of 90% or more (almost completely withered))	5 (Herbicidal rate of 90% or more (almost completely withered))	5 (Herbicidal rate of 90% or more (almost completely withered))	5 (Herbicidal rate of 90% or more (almost completely withered))	5 (Herbicidal rate of 90% or more (almost completely withered))	5 (Herbicidal rate of 90% or more (almost completely withered))	5 (Herbicidal rate of 90% or more (almost completely withered))	5 (Herbicidal rate of 90% or more (almost completely withered))	5 (Herbicidal rate of 90% or more (almost completely withered))	5 (Herbicidal rate of 90% or more (almost completely withered))	–
COc1ccccc1-c1sc2cc(OCC3CC3)ccc2c1-c1c(O)c(C)nn(C)c1=O [3-129]	5 (Herbicidal rate of 90% or more (almost completely withered))	5 (Herbicidal rate of 90% or more (almost completely withered))	3 (Herbicidal rate of 40% or more and less than 70%)	3 (Herbicidal rate of 40% or more and less than 70%)	5 (Herbicidal rate of 90% or more (almost completely withered))	5 (Herbicidal rate of 90% or more (almost completely withered))	4 (Herbicidal rate of 70% or more and less than 90%)	4 (Herbicidal rate of 70% or more and less than 90%)	0 (Herbicidal rate of 5% or less (almost no effect))	5 (Herbicidal rate of 90% or more (almost completely withered))	4 (Herbicidal rate of 70% or more and less than 90%)	5 (Herbicidal rate of 90% or more (almost completely withered))	4 (Herbicidal rate of 70% or more and less than 90%)	5 (Herbicidal rate of 90% or more (almost completely withered))	5 (Herbicidal rate of 90% or more (almost completely withered))	5 (Herbicidal rate of 90% or more (almost completely withered))	–
CCCC(=O)Oc1c(C)nn(C)c(=O)c1-c1c(-c2ccc(C(F)(F)F)cc2)sc2cc(F)ccc12 [3-140]	3 (Herbicidal rate of 40% or more and less than 70%)	3 (Herbicidal rate of 40% or more and less than 70%)	3 (Herbicidal rate of 40% or more and less than 70%)	3 (Herbicidal rate of 40% or more and less than 70%)	5 (Herbicidal rate of 90% or more (almost completely withered))	5 (Herbicidal rate of 90% or more (almost completely withered))	–	–	–	–	–	1 (Herbicidal rate of 5% or more and less than 20%)	3 (Herbicidal rate of 40% or more and less than 70%)	0 (Herbicidal rate of 5% or less (almost no effect))	0 (Herbicidal rate of 5% or less (almost no effect))	5 (Herbicidal rate of 90% or more (almost completely withered))	Herbicidal effect by soil treatment, F: southern crabgrass (southern crabgrass [4]): 0 (Herbicidal rate of 5% or less (almost no effect)); Herbicidal effect by soil treatment, J: blackgrass (blackgrass [5]): 0 (Herbicidal rate of 5% or less (almost no effect)); Herbicidal effect by soil treatment, M: velvetleaf (velvetleaf): 0 (Herbicidal rate of 5% or less (almost no effect)); Herbicidal effect by soil treatment, N: redroot pigweed (redroot pigweed): 4 (Herbicidal rate of 70% or more and less than 90%); Herbicidal effect by soil treatment, R: persian speedwell (persian speedwell): 0 (Herbicidal rate of 5% or less (almost no effect))
